Biological target: PIK3CD (Human) (UniProt O00329)
Test: Assessment of PIK3CD Kinase Activity

Chain of PIK3CD (Human) (O00329 whole entry, looked up): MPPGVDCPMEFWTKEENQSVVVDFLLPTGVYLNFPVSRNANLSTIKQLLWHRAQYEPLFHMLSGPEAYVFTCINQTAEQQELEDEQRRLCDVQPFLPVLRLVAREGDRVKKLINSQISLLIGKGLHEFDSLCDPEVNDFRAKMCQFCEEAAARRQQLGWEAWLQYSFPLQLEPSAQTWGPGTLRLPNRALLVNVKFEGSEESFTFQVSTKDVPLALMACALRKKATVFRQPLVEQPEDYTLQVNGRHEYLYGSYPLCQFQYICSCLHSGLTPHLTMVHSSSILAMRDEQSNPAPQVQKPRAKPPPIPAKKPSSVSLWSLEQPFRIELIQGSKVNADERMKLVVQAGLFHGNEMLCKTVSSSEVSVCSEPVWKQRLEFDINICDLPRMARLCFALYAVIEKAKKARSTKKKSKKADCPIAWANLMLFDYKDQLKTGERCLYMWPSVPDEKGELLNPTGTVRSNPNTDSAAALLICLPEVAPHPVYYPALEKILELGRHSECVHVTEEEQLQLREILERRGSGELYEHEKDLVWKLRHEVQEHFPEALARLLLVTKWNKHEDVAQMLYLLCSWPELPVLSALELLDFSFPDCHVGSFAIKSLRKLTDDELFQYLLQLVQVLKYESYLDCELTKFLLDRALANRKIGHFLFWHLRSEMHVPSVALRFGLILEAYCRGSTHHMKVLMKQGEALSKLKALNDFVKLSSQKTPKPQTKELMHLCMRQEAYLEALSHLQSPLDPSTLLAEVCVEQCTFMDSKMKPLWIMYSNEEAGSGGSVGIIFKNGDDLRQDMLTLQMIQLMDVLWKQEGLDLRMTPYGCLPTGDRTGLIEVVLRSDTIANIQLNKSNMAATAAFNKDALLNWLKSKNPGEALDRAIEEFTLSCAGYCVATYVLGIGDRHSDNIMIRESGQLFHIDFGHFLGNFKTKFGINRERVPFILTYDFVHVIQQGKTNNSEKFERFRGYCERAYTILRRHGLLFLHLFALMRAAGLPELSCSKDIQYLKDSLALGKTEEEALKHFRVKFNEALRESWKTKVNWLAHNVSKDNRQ

Row | IC50 | Structure (SMILES)
1 | ≤ 100 nM | COCC1CCCN(Cc2cc3nc(-c4cccc5[nH]ncc45)nc(N4CCOCC4)c3s2)C1 (stereo not drawn)
2 | ≤ 100 nM | COCCN(C)CC1CCN(Cc2cc3nc(-c4cccc5[nH]ncc45)nc(N4CCOCC4)c3s2)CC1
3 | ≤ 100 nM | c1cnc(N2CCN(Cc3cc4nc(-c5cccc6[nH]ncc56)nc(N5CCOCC5)c4s3)CC2)nc1
4 | ≤ 100 nM | c1cncc(CN2CCN(Cc3cc4nc(-c5cccc6[nH]ncc56)nc(N5CCOCC5)c4s3)CC2)c1
5 | ≤ 100 nM | COCC(=O)N(C)C1CCN(Cc2cc3nc(-c4cccc5[nH]ncc45)nc(N4CCOCC4)c3s2)CC1
6 | ≤ 100 nM | COCCCN(C)C1CCN(Cc2cc3nc(-c4cccc5[nH]ncc45)nc(N4CCOCC4)c3s2)CC1
7 | ≤ 100 nM | Cn1ccnc1CN1CCN(Cc2cc3nc(-c4cccc5[nH]ncc45)nc(N4CCOCC4)c3s2)CC1
8 | ≤ 100 nM | CCC(CC)(COC)N1CCN(Cc2cc3nc(-c4cccc5[nH]ncc45)nc(N4CCOCC4)c3s2)CC1
9 | ≤ 100 nM | FC(F)(F)CN1CCN(Cc2cc3nc(-c4cccc5[nH]ncc45)nc(N4CCOCC4)c3s2)CC1
10 | ≤ 100 nM | C[C@@H]1CN(Cc2cc3nc(-c4cccc5[nH]ncc45)nc(N4CCOCC4)c3s2)C[C@H](C)N1Cc1ccccn1
11 | ≤ 100 nM | Cc1csc(CN2CCN(Cc3cc4nc(-c5cccc6[nH]ncc56)nc(N5CCOCC5)c4s3)CC2)n1
12 | ≤ 100 nM | COCCN(C)C1CCN(Cc2cc3nc(-c4cccc5[nH]ncc45)nc(N4CCOCC4)c3s2)CC1
13 | ≤ 100 nM | COCCN(C1CCN(Cc2cc3nc(-c4cccc5[nH]ncc45)nc(N4CCOCC4)c3s2)CC1)S(C)(=O)=O

Reference: the Kinase Knowledgebase extract (Sharma et al. 2016)
